Consider 13 molecules from patent publication US8987195B2 (priority 2012, dated 2015).

Experiment [1] concerns the target HCV NS3/4A protease genotype 1b (Hepatitis C virus genotype 1b, UniProt P26663). Kind of experiment: HCV NS3/4A protease time-resolved fluorescence (TRF) assay, Ki against genotype 1b. Conditions: IC50 [gt-1b] (nM), NS3/4A genotype 1b, enzyme 0.2 nM. In kind it is biochemical. In a few lines: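 First, protease (genotype 1b 0.2 nM, A156T 0.4 nM, genotype 3a 0.025 nM) is preincubated 30 min with inhibitor. Next, 25 nM TRF substrate starts the reaction, run 2.5 h at room temperature. Finally, europium fluorescence is read and Ki calculated from IC50.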

For the next experiment, the system named is HCV genotype 1b replicon. Put plainly: HCV replicon assay, genotype 1b replicon EC50. In kind it is cell-based, Hepatitis C virus. As to conditions: Hepatitis C virus, genotype 1b replicon; read-out: EC50 [gt-1b]. The method in brief: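 Stable neomycin phosphotransferase-encoding replicon cell lines, kept under G418 selection beforehand, were plated with a compound dilution series without G418 and incubated 24-48 hours. Replicon RNA was then quantified, or luciferase activity read. EC50 was calculated as percent of DMSO control by four-parameter fit.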
For orientation: Replicon systems follow genome replication, usually without infectious particles.

A word on the IC50: it is the midpoint of a concentration-inhibition curve. The EC50 is the concentration at which the effect is half-maximal. In turn, `COc1ccc2nc(C3CC3)c3c(c2c1)CC[C@]1(C[C@H]2C(=O)N[C@]4(C(=O)NS(=O)(=O)C5(C)CC5)C[C@H]4/C=C\CCCCC[C@H](NC(=O)NC(C)(C)C)C(=O)N2C1)O3` [Example 90, (2R,6S,12Z,13aS,14aR,16aS)-6-[(tert-butylcarbamoyl)amino]-5′-cyclopropyl-9′-methoxy-N-[(1-methylcyclopropyl)sulfonyl]-5,16-dioxo-1,1′,2′,6,7,8,9,10,11,13a,14,15,16,16a-tetradecahydrospiro[cyclopropa[e]pyrrolo[1,2-a][1,4]diazacyclopentadecine-2,3′-pyrano[2,3-c]quinoline]-14a(5H)-carboxamide] yielded an IC50 in experiment [1] of 0.006 nM. For the same molecule, the EC50 with HCV genotype 1b replicon worked out at 1.15 nM.
For `COc1ccc2nc(C3CC3)c3c(c2c1)CC[C@]1(C[C@H]2C(=O)N[C@]4(C(=O)NS(=O)(=O)C5(C)CC5)C[C@H]4/C=C\CCCCC[C@H](NC(=O)OC4CCCC4)C(=O)N2C1)O3` [Example 91, cyclopentyl [(2R,6S,12Z,13aS,14aR,16aS)-5′-cyclopropyl-9′-methoxy-14a-{[(1-methylcyclopropyl)sulfonyl]carbamoyl}-5,16-dioxo-1,1′,2′,5,6,7,8,9,10,11,13a,14,14a,15,16,16a-hexadecahydrospiro[cyclopropa[e]pyrrolo[1,2-a][1,4]diazacyclopentadecine-2,3′-pyrano[2,3-c]quinolin]-6-yl]carbamate] the same measures were 0.009 nM and 0.46 nM.
In experiment [1], `COc1ccc2nc(C3CC3)c3c(c2c1)CC[C@]1(C[C@H]2C(=O)N[C@]4(C(=O)NS(=O)(=O)C5(C)CC5)C[C@H]4/C=C\CCCCC[C@H](NC(=O)OC4(C)CC4)C(=O)N2C1)O3` [Example 92, 1-methylcyclopropyl [(2R,6S,12Z,13aS,14aR,16aS)-5′-cyclopropyl-9′-methoxy-14a-{[(1-methylcyclopropyl)sulfonyl]carbamoyl}-5,16-dioxo-1,1′,2′,5,6,7,8,9,10,11,13a,14,14a,15,16,16a-hexadecahydrospiro[cyclopropa[e]pyrrolo[1,2-a][1,4]diazacyclopentadecine-2,3′-pyrano[2,3-c]quinolin]-6-yl]carbamate] returned an IC50 of 0.01 nM. In addition, the EC50 in the experiment with HCV genotype 1b replicon is 0.44 nM.
`COc1ccc2nc(C3CC3)c3c(c2c1)CC[C@]1(C[C@H]2C(=O)N[C@]4(C(=O)NS(=O)(=O)C5(C)CC5)C[C@H]4/C=C\CCCCC[C@H](NC(=O)NC4CCCC4)C(=O)N2C1)O3` [Example 93, (2R,6S,12Z,13aS,14aR,16aS)-6-[(cyclopentylcarbamoyl)amino]-5′-cyclopropyl-9′-methoxy-N-[(1-methylcyclopropyl)sulfonyl]-5,16-dioxo-1,1′,2′,6,7,8,9,10,11,13a,14,15,16,16a-tetradecahydrospiro[cyclopropa[e]pyrrolo[1,2-a][1,4]diazacyclopentadecine-2,3′-pyrano[2,3-c]quinoline]-14a(5H)-carboxamide] displayed a half-maximal inhibitory concentration (IC50) in experiment [1] of 0.007 nM. Further, in the experiment on HCV genotype 1b replicon, the concentration giving a half-maximal response (EC50) was found to be 3.4 nM.
The molecule `COc1ccc2nc(C3CC3)c3c(c2c1)CC[C@]1(C[C@H]2C(=O)N[C@]4(C(=O)NS(=O)(=O)C5(C)CC5)C[C@H]4/C=C\CCCCC[C@H](NC(=O)OC(C)C)C(=O)N2C1)O3` [Example 94, propan-2-yl [(2R,6S,12Z,13aS,14aR,16aS)-5′-cyclopropyl-9′-methoxy-14a-{[(1-methylcyclopropyl)sulfonyl]carbamoyl}-5,16-dioxo-1,1′,2′,5,6,7,8,9,10,11,13a,14,14a,15,16,16a-hexadecahydrospiro[cyclopropa[e]pyrrolo[1,2-a][1,4]diazacyclopentadecine-2,3′-pyrano[2,3-c]quinolin]-6-yl]carbamate] had an IC50 in experiment [1] of 0.003 nM. Moreover, the EC50 in the experiment with HCV genotype 1b replicon is 0.61 nM.
The corresponding values for `Cc1nc2c(C(F)(F)F)cccc2c2c1O[C@]1(CC2)C[C@H]2C(=O)N[C@]3(C(=O)NS(=O)(=O)C4CC4)C[C@H]3/C=C\CCCCC[C@H](NC(=O)OC(C)(C)C)C(=O)N2C1` [Example 95, tert-butyl [(2R,6S,12Z,13aS,14aR,16aS)-14a-[(cyclopropylsulfonyl)carbamoyl]-5′-methyl-5,16-dioxo-7′-(trifluoromethyl)-1,1′,2′,5,6,7,8,9,10,11,13a,14,14a,15,16,16a-hexadecahydrospiro[cyclopropa[e]pyrrolo[1,2-a][1,4]diazacyclopentadecine-2,3′-pyrano[2,3-c]quinolin]-6-yl]carbamate] are 0.993 nM and 5.24 nM.
In the case of `Cc1nc2ccccc2c2c1O[C@]1(CC2)C[C@H]2C(=O)N[C@]3(C(=O)NS(=O)(=O)C4(C)CC4)C[C@H]3/C=C\CCCCC[C@H](NC(=O)OC3CCCC3)C(=O)N2C1` [Example 96, cyclopentyl [(2R,6S,12Z,13aS,14aR,16aS)-5′-methyl-14a-{[(1-methylcyclopropyl)sulfonyl]carbamoyl}-5,16-dioxo-1,1′,2′,5,6,7,8,9,10,11,13a,14,14a,15,16,16a-hexadecahydrospiro[cyclopropa[e]pyrrolo[1,2-a][1,4]diazacyclopentadecine-2,3′-pyrano[2,3-c]quinolin]-6-yl]carbamate], the IC50 in experiment [1] was 0.01 nM. For the same molecule, the EC50 with HCV genotype 1b replicon was 0.796 nM.
In experiment [1], `Cc1nc2ccccc2c2c1O[C@]1(CC2)C[C@H]2C(=O)N[C@]3(C(=O)NS(=O)(=O)C4(C)CC4)C[C@H]3/C=C\CCCCC[C@H](NC(=O)OCC(C)C)C(=O)N2C1` [Example 97, 2-methylpropyl [(2R,6S,12Z,13aS,14aR,16aS)-5′-methyl-14a-{[(1-methylcyclopropyl)sulfonyl]carbamoyl}-5,16-dioxo-1,1′,2′,5,6,7,8,9,10,11,13a,14,14a,15,16,16a-hexadecahydrospiro[cyclopropa[e]pyrrolo[1,2-a][1,4]diazacyclopentadecine-2,3′-pyrano[2,3-c]quinolin]-6-yl]carbamate] had an IC50 of 0.016 nM. In the experiment with HCV genotype 1b replicon, the EC50 is 1.94 nM.
The molecule `CC(C)(C)OC(=O)N[C@H]1CCCCC/C=C\[C@@H]2C[C@@]2(C(=O)NS(=O)(=O)C2CC2)NC(=O)[C@@H]2C[C@]3(CCc4c(cnc5ccccc45)O3)CN2C1=O` [Example 98, tert-butyl {(2R,6S,12Z,13aS,14aR,16aS)-14a-[(cyclopropylsulfonyl)carbamoyl]-5,16-dioxo-1,1′,2′,5,6,7,8,9,10,11,13a,14,14a,15,16,16a-hexadecahydrospiro[cyclopropa[e]pyrrolo[1,2-a][1,4]diazacyclopentadecine-2,3′-pyrano[2,3-c]quinolin]-6-yl}carbamate] gave an IC50 in experiment [1] of 0.057 nM. Besides, the EC50 with HCV genotype 1b replicon is 9.72 nM.
In experiment [1], `CC(C)(C)OC(=O)N[C@H]1CCCCC/C=C\[C@@H]2C[C@@]2(C(=O)NS(=O)(=O)C2(C)CC2)NC(=O)[C@@H]2C[C@]3(CCc4c(cnc5ccccc45)O3)CN2C1=O` [Example 99, tert-butyl [(2R,6S,12Z,13aS,14aR,16aS)-14a-{[(1-methylcyclopropyl)sulfonyl]carbamoyl}-5,16-dioxo-1,1′,2′,5,6,7,8,9,10,11,13a,14,14a,15,16,16a-hexadecahydrospiro[cyclopropa[e]pyrrolo[1,2-a][1,4]diazacyclopentadecine-2,3′-pyrano[2,3-c]quinolin]-6-yl]carbamate] came in with an IC50 of 0.033 nM. The EC50 with HCV genotype 1b replicon was determined as 4.53 nM.
As for `COc1ccc2nc(C3CC3)c3c(c2c1)CC[C@]1(C[C@H]2C(=O)N[C@]4(C(=O)NS(=O)(=O)C5(C)CC5)C[C@H]4/C=C\CCCCC[C@H](NC(=O)OCC(C)C)C(=O)N2C1)O3` [Example 100, 2-methylpropyl [(2R,6S,12Z,13aS,14aR,16aS)-5′-cyclopropyl-9′-methoxy-14a-{[(1-methylcyclopropyl)sulfonyl]carbamoyl}-5,16-dioxo-1,1′,2′,5,6,7,8,9,10,11,13a,14,14a,15,16,16a-hexadecahydrospiro[cyclopropa[e]pyrrolo[1,2-a][1,4]diazacyclopentadecine-2,3′-pyrano[2,3-c]quinolin]-6-yl]carbamate], in experiment [1], the IC50 was 0.011 nM. Besides, the EC50 with HCV genotype 1b replicon was 2.08 nM.
For `CC(C)(C)OC(=O)N[C@H]1CCCCC/C=C\[C@@H]2C[C@@]2(C(=O)O)NC(=O)[C@@H]2C[C@]3(CCc4c(cnc5ccccc45)O3)CN2C1=O` [Example 101, (2R,6S,12Z,13aS,14aR,16aS)-6-[(tert-butoxycarbonyl)amino]-5,16-dioxo-1,1′,2′,6,7,8,9,10,11,13a,14,15,16,16a-tetradecahydrospiro[cyclopropa[e]pyrrolo[1,2-a][1,4]diazacyclopentadecine-2,3′-pyrano[2,3-c]quinoline]-14a(5H)-carboxylic acid] the same measures were 38.2 nM and above 100 nM.
For `CC1(OC(=O)N[C@H]2CCCCC/C=C\[C@@H]3C[C@@]3(C(=O)NS(=O)(=O)C3(C)CC3)NC(=O)[C@@H]3C[C@]4(CCc5c(c(C6CC6)nc6ccccc56)O4)CN3C2=O)CC1` [Example 102, 1-methylcyclopropyl [(2R,6S,12Z,13aS,14aR,16aS)-5′-cyclopropyl-14a-{[(1-methylcyclopropyl)sulfonyl]carbamoyl}-5,16-dioxo-1,1′,2′,5,6,7,8,9,10,11,13a,14,14a,15,16,16a-hexadecahydrospiro[cyclopropa[e]pyrrolo[1,2-a][1,4]diazacyclopentadecine-2,3′-pyrano[2,3-c]quinolin]-6-yl]carbamate] the same measures were 0.004 nM and 1.58 nM.
